The values below come from patent US20260035339A1, “TETRAHYDRONAPHTHALENE DERIVATIVE” (ATRANSEN PHARMA LTD., priority 2022, published 2026).

One test deals with human LAT1 (Homo sapiens, UniProt Q01650). The experiment in a line: [14C]L-leucine uptake inhibition test using human-LAT1 stably expressing HEK293 cell line. Set-up: having full-length cDNA of human LAT1 or LAT2 inserted under a promoter of CMV; expressed in transfected cells; key to Assay Data: degree of [14C]L-leucine uptake inhibition compared with BCH: a test compound having a higher inhibitory effect than BCH is denoted by A; a test compound having the same inhibitory effect as BCH is denoted by B; a test compound having a lower inhibitory effect than BCH is denoted by C. The class given is cell-based. The note with it: for Assay Data: degree of [14C]L-leucine uptake inhibition compared with BCH: compound (racemic form) and BCH at 0.1, 1.0, 10 μM, 1 μM [14C]L-leucine, 1 minute, Na+-free HBSS. An excerpt:
HEK293 cells stably expressing human LAT1 and LAT2 were produced, respectively.
A shuttle vector DNA (LAT1: pcDNA3.1(+) -hLAT1, LAT2: pcDNA3.1(+) -hLAT2; expression vector pcDNA3.1 (+) was produced by Invitrogen Corp.) having ampicillin and neomycin resistance markers and having full-length cDNA of human LAT1 or LAT2 inserted under a promoter of CMV (cytomegalovirus) was constructed. This vector was transfected into the HEK293 cells by a method using Lipofectamine (registered trademark) 2000 (Invitrogen Corp.) according to the manufacturer's instructions. Thereafter, stably expressing cell clones of transgene were selected by a limiting dilution method in the presence of 0.9 mg/mL of Geneticin (registered trademark), and among the obtained cell clones, cell clones having a high uptake of [^14C]L-leucine and maintaining stable expression even after 10 passages were obtained. These cells were used for evaluating affinity and selectivity for LAT1 and LAT2.
1-1. It has been confirmed that LAT1 is responsible for L-leucine uptake in the absence of sodium ions in the human-LAT1 stably expressing HEK293 cell line. The human-LAT1 stably expressing HEK293 cell line was seeded in a 24-well plate at 1×10^5 Cell/Well, and the [^14C]L-leucine uptake inhibition test using the compound was performed after 48 hours. After the medium was removed and the cells were washed with Hank's balanced salt solution (Na^+-free HBSS) not containing sodium ions, the cells were cultured in Na^+-free HBSS for 10 minutes. Thereafter, 1 μM of [^14C]L-leucine was taken up in Na^+-free HBSS in the presence of a test compound (0.1, 1.0, 10, 0 μM in each case), which is a racemic form, for 1 minute, and then the cells were washed three times with ice-cooled Na^+-free HBSS. To the well, 500 μL of 1 M NaOH was added, and after 30 minutes, the cells were lysed, and the cell lysate was collected. The amount of [^14C]L-leucine in the cell lysate was determined using a liquid scintillator. The amount of protein in the cell lysate was measured using BCA Assay Kit (Thermofisher Scientific), and the uptake amount of [^14C]L-leucine per 1 mg of protein in the cell per minute was calculated.
The degree of LAT1 inhibition of the compound obtained in the present invention was compared with BCH (BCH, 2-aminobicyclo-(2,2,1)-heptane-2-carboxylic acid), which is an existing LAT1 inhibitor. In the [^14C]L-leucine uptake inhibition test described above, the degrees of inhibition of [^14C]L-leucine uptake inhibition using the compound (racemic form) obtained in Examples and BCH (0.1, 1.0, 10, 0 μM for both) were compared. […] In the table, a test compound having a higher inhibitory effect than BCH is denoted by A, a test compound having the same inhibitory effect as BCH is denoted by B, and a test compound having a lower inhibitory effect than BCH is denoted by C.

Test [1] deals with Mouse colorectal cancer-derived CT26 cells. Briefly: Cell proliferation inhibitory effect using mouse colorectal cancer cells (CCK-8 assay). The class given is cell-based. The following applies: 72 hours compound treatment, read-out: Evaluation of IC50 (proliferation inhibition rate of 50%). The protocol: Mouse colorectal cancer-derived CT26 cells were adjusted to […], seeded in a 96-well plate at 1000 cells/well, and cultured in a 10% fetal bovine serum-added RPMI 1640 medium at 5% CO2 and 37° C. The culture medium was changed 24 hours after the start of the culture, and the medium containing the compound of Example was replaced to examine the action of the compound on cell proliferation. As the compound, a concentration of 0.01, 0.03, 0.1, 0.3, 1, 3, 10, or 30 μM was used. As a control, the cells were cultured in a medium containing no compound. The number of cells was evaluated by CCK-8 assay (Cell Counting Kit-8, DOJINDO LABORATORIES) 72 hours after the start of the compound treatment, and the compound concentration (IC50 value) giving a proliferation inhibition rate of 50% as compared with the control was calculated.
A general note: Formazan colour is commonly taken as a measure of viable cells.

Molecules are shown by their SMILES.

human LAT1, sequence (Q01650 whole entry): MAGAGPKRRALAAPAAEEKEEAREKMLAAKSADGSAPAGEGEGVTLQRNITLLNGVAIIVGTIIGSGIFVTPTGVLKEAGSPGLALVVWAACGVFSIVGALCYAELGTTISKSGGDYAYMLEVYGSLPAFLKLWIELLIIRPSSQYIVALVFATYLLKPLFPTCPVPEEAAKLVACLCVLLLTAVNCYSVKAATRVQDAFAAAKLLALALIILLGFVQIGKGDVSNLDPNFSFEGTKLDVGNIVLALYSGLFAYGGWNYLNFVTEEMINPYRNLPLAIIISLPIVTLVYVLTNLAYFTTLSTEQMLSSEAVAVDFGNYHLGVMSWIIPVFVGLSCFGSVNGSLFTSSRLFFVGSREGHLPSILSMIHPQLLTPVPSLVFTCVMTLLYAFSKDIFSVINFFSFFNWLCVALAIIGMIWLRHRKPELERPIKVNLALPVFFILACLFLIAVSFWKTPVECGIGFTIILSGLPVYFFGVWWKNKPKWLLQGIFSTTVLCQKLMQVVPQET
human LAT1, sequence (P08195 102-630 partner): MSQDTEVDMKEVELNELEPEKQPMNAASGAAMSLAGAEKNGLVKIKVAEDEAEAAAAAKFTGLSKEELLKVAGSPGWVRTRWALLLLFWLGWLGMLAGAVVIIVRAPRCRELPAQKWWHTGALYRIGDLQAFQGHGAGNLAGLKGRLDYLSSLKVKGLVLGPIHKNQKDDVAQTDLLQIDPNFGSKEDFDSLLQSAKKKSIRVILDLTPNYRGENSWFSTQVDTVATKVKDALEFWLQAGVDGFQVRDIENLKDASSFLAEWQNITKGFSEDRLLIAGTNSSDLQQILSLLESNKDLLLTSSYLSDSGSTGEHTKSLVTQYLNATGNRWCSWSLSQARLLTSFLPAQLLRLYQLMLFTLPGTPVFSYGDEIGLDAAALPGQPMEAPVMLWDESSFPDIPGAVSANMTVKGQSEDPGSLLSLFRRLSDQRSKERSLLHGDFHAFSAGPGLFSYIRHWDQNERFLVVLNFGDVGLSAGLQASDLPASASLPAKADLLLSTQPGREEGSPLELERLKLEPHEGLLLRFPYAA

`NC1(C(=O)O)CC2CCC1C2` (centres unmarked) [BCH, 2-aminobicyclo-(2,2,1)-heptane-2-carboxylic acid, reference compound]: the “[14C]L-leucine uptake inhibition via LAT1 (in words)” value on human LAT1 (0.1 to 10 μM) was “weak”.
`Cl.NC1(C(=O)O)CCc2ccc(Oc3cccc(-c4ccccc4)c3)cc2C1` (centres unmarked) [Example 1-2, 7-([1,1′-biphenyl]-3-yloxy)-2-carboxy-1,2,3,4-tetrahydronaphthalene-2-aminium chloride]: the “Assay Data: degree of [14C]L-leucine uptake inhibition compared with BCH” value at human LAT1 is given as “A”.
On the same count and under the same terms, the same measure for `Cl.NC1(C(=O)O)CCc2ccc(Oc3ccc4occc4c3)cc2C1` (centres unmarked) [Example 1-3, 7-(benzofuran-5-yloxy)-2-carboxy-1,2,3,4-tetrahydronaphthalene-2-aminium chloride]: “A”.
Take `Cl.NC1(C(=O)O)CCc2ccc(Oc3cccc4ccccc34)cc2C1` (centres unmarked) [Example 1-4, 2-carboxy-7-(naphthalene-1-yloxy)-1,2,3,4-tetrahydronaphthalene-2-aminium chloride]: the “Assay Data: degree of [14C]L-leucine uptake inhibition compared with BCH” value on human LAT1 is listed as “A”. Further, the “LAT1 inhibitory effect, compounds singled out (in words)” value on human LAT1 (same test as Table 1) was “particularly remarkable effects”. In addition, in test [1], the IC50 was no more than 900 nM.
For the compound `COc1ccc2ccc(Oc3ccc4c(c3)CC(N)(C(=O)O)CC4)cc2c1.Cl` (centres unmarked) [Example 1-5, 2-carboxy-7-((7-methoxynaphthalene-2-yl)oxy)-1,2,3,4-tetrahydronaphthalene-2-aminium chloride], the “Assay Data: degree of [14C]L-leucine uptake inhibition compared with BCH” value on human LAT1 is on record as “A”.
`CN(C)c1ccc2cc(Oc3ccc4c(c3)CC(N)(C(=O)O)CC4)ccc2c1` (centres unmarked) [Example 1-6, 2-amino-7-((6-(dimethylamino)naphthalene-2-yl)oxy)-1,2,3,4-tetrahydronaphthalene-2-carboxylic acid]: the “Assay Data: degree of [14C]L-leucine uptake inhibition compared with BCH” value at human LAT1 is reported as “A”.
In the case of `CN(C)c1ccc2ccc(Oc3ccc4c(c3)CC(N)(C(=O)O)CC4)cc2c1` (centres unmarked) [Example 1-7, 2-amino-7-((7-(dimethylamino)naphthalene-2-yl)oxy)-1,2,3,4-tetrahydronaphthalene-2-carboxylic acid], the “Assay Data: degree of [14C]L-leucine uptake inhibition compared with BCH” value at human LAT1 is recorded as “A”.
The same measure, in the same setting: the result for `NC1(C(=O)O)CCc2ccc(Oc3ccc4ncccc4c3)cc2C1` (centres unmarked) [Example 1-8, 2-amino-7-(quinoline-6-yloxy)-1,2,3,4-tetrahydronaphthalene-2-carboxylic acid] reads “A”; that for `NC1(C(=O)O)CCc2ccc(Oc3cccc(-c4ccccn4)c3)cc2C1` (centres unmarked) [Example 1-9, 2-amino-7-(3-(pyridine-2-yl)phenoxy)-1,2,3,4-tetrahydronaphthalene-2-carboxylic acid], “A”; that for `Cl.NC1(C(=O)O)CCc2ccc(Oc3cccc(-c4ccc(Cl)cc4)c3)cc2C1` (centres unmarked) [Example 1-10, 2-carboxy-7-((4′-chloro-[1,1′-biphenyl]-3-yl)oxy)-1,2,3,4-tetrahydronaphthalene-2-aminium chloride], “A”.
On the same count and under the same terms, the same measure for `Cl.NC1(C(=O)O)CCc2ccc(Oc3cccc(-c4cccc(Cl)c4)c3)cc2C1` (centres unmarked) [Example 1-11, 2-carboxy-7-((3′-chloro-[1,1′-biphenyl]-3-yl)oxy)-1,2,3,4-tetrahydronaphthalene-2-aminium chloride]: “A”.
The same measure, in the same setting: the same measure for `Cl.NC1(C(=O)O)CCc2ccc(Oc3ccc(-c4ccccc4)cc3)cc2C1` (centres unmarked) [Example 1-12, 7-([1,1′-biphenyl]-4-yloxy)-2-carboxy-1,2,3,4-tetrahydronaphthalene-2-aminium chloride]: “A”.
Turning to `Cl.NC1(C(=O)O)CCc2ccc(Oc3cccc(-c4ccc5ccccc5c4)c3)cc2C1` (centres unmarked) [Example 1-13, 2-carboxy-7-(3-(naphthalene-2-yl)phenoxy)-1,2,3,4-tetrahydronaphthalene-2-aminium chloride], the “Assay Data: degree of [14C]L-leucine uptake inhibition compared with BCH” value at human LAT1 was “A”.
Take `Cl.NC1(C(=O)O)CCc2ccc(Oc3ccccc3-c3ccccc3)cc2C1` (centres unmarked) [Example 1-16, 7-([1,1′-biphenyl]-2-yloxy)-2-carboxy-1,2,3,4-tetrahydronaphthalene-2-aminium chloride]: the “Assay Data: degree of [14C]L-leucine uptake inhibition compared with BCH” value on human LAT1 is “A”. Also, in test [1], the IC50 was no more than 900 nM.
On the same counts, the results for `Cl.Cl.NC1(C(=O)O)CCc2ccc(Oc3ccccc3-c3ccccn3)cc2C1` (centres unmarked) [Example 1-32, 2-(2-((7-ammonio-7-carboxy-5,6,7,8-tetrahydronaphthalen-2-yl)oxy)phenyl) pyridin-1-ium chloride] are “A” and 900 to 5000 nM.
As to `COc1cccc(-c2ccccc2Oc2ccc3c(c2)CC(N)(C(=O)O)CC3)c1.Cl` (centres unmarked) [Example 1-39, 2-carboxy-7-((3′-methoxy-[1,1′-biphenyl]-2-yl)oxy)-1,2,3,4-tetrahydronaphthalene-2-aminium chloride], at human LAT1, the “Assay Data: degree of [14C]L-leucine uptake inhibition compared with BCH” value is given as “A”. Further, the IC50 in test [1] is no more than 900 nM.
On the same counts, the results for `CCc1cccc(-c2ccccc2Oc2ccc3c(c2)CC(N)(C(=O)O)CC3)c1.Cl` (centres unmarked) [Example 1-47, 2-carboxy-7-((3′-ethyl-[1,1′-biphenyl]-2-yl)oxy)-1,2,3,4-tetrahydronaphthalene-2-aminium chloride] are “A” and no more than 900 nM.
For `Cl.NC1(C(=O)O)CCc2ccc(Oc3ccccc3-c3ccc(F)c(F)c3)cc2C1` (centres unmarked) [Example 1-56, 2-carboxy-7-((3′,4′-Difluoro-[1,1′-Biphenyl]-2-yl)oxy)-1,2,3,4-tetrahydronaphthalene-2-aminium chloride], the “Assay Data: degree of [14C]L-leucine uptake inhibition compared with BCH” value at human LAT1 is reported as “A”. In addition, the IC50 in test [1] is no more than 900 nM.
On the same counts, the results for `COc1cccc2cccc(Oc3ccc4c(c3)CC(N)(C(=O)O)CC4)c12.Cl` (centres unmarked) [Example 1-60, 2-carboxy-7-((8-methoxynaphthalen-1-yl)oxy)-1,2,3,4-tetrahydronaphthalen-2-aminium chloride] are “A” and no more than 900 nM.
As to `Cl.NC1(C(=O)O)CCc2ccc(Oc3cccc4cccc(-c5ccccc5)c34)cc2C1` (centres unmarked) [Example 1-61, 2-carboxy-7-((8-phenylnaphthalen-1-yl)oxy)-1,2,3,4-tetrahydronaphthalen-2-aminium chloride], at human LAT1, the “Assay Data: degree of [14C]L-leucine uptake inhibition compared with BCH” value was “A”. Further, the IC50 in test [1] was no more than 900 nM.
Consider `NC1(C(=O)O)CCc2ccc(Oc3ccc([N+](=O)[O-])cc3)cc2C1` (centres unmarked) [Example 1-68, 2-carboxy-7-(4-nitrophenoxy)-1,2,3,4-tetrahydronaphthalene-2-aminium chloride], for which the IC50 in test [1] was 900 to 5000 nM.
As to `Cl.NC1(C(=O)O)CCc2cc(Oc3ccc4ccccc4c3)ccc2C1` (centres unmarked) [Example 2-1, 2-carboxy-6-(naphthalene-2-yloxy)-1,2,3,4-tetrahydronaphthalene-2-aminium chloride], on human LAT1, the “Assay Data: degree of [14C]L-leucine uptake inhibition compared with BCH” value was “A”.
For `NC1(C(=O)O)CCc2cc(Oc3ccc(-c4cccnc4)cc3)ccc2C1` (centres unmarked) [Example 2-2, 3-(4-((6-ammonio-6-carboxy-5,6,7,8-tetrahydronaphthalene-2-yl)oxy)phenyl) pyridine-1-ium chloride], at human LAT1, the “Assay Data: degree of [14C]L-leucine uptake inhibition compared with BCH” value was “B”.
